Test results taken from US6468537B1, “Localization of major peptide autoepitopes for nucleosome specific T cells of systemic lupus erythematosus” (The Board of Trustees of Northwestern University, priority 1999, dated 2002).

How the values were obtained:
[1] = system: pathogenic Th clones from SNF1 mice; assay: Stimulation of nucleosome-specific pathogenic Th clones from SNF1 mice by eluted/synthetic peptides; format: cell-based, mouse; settings: A20 or splenic B+Mφ as APC
Experimental: Fresh splenic, CD4^+ T cells (5×10^5/well) were co-cultured in triplicate wells at an initial concentration of 5×10^5 cells per well, with 10^6 cells per well of either irradiated B+Mφ or mitomycin-C treated A20 APC. Varying concentrations of either control or test peptides were added and the cultures were adjusted to 200 microliters final volume of HL-1 serum-free medium (Hycor Biomedical Inc., Irvine, Calif.) cultures were incubated for 96 hours in flat bottom 96-well plates, and at 18 hours prior to harvesting the cells, 1 microcurie of 3H-Thymidine was added to each well. The incorporated radioactivity was measured by scintillation counting. The Stimulation Index (SI) was calculated by dividing the mean counts per minute (cpm) incorporated in co-cultures of T cells and APC with test peptide by the mean cpm incorporated in control peptide co-cultures. In the case of cytokine assays, experiments were carried out as described for the proliferation assays except that the culture supernatants were removed from duplicate co-culture wells after 24-46 hours of incubation and cytokine assays were performed.
An aliquot of 50 microliters from each HPLC fraction was assayed for stimulating ability as described above. Four characterized Th clones were used as indicators of cytokine secretion (IL-2 and/or IL-4) in response to the peptide fractions, using A20 or splenic B+Mψ as APCs (Adams, et al., 1991, Proc. Natl. Acad. Sci. USA 88:11271-11275; Shi, et al., 1998, J. Exp. Med. 187:367-378). […] Only two out of one hundred fractions tested were able to stimulate Th cell clones. […] The latter was further separated as described, and tested for active fractions of HPLC purified peptides.. Three naturally processed and presented, stimulatory epitopes were identified using these procedures. The sequences of the peptides are as follows: SQKEEEEGAQREKE (EP-1, SEQ ID NO: 23); DWMEEEHGAQREKE (EP-2, SEQ ID NO: 24); and […] (EP-3, or H522-42, SEQ ID NO: 25). The first two peptides were homologous to sequences in a transcription factor, BRN-3, which is identical in chicken, mice and humans (GenBank). […] EP-1 is highly homologous to EP-2, but it also matched a sequence in cytomegalovirus envelope protein at aa position 57-70. Most likely these peptides are derived from some transcription factor in the chromatin that was incubated with the APC. The third sequence (EP-3) was derived from histone H5 (aa position 22-42) in chicken nucleosome, which is homologous to histone H1 sequence of mice and humans at amino acid position 22-42 ([…], SEQ ID NO:26). […] Therefore, the mouse H122-42 is the autoantigenic peptide in mice and is also referred to herein as EP-3. Nested sequences and unrelated sequences that were obtained in the active fractions from the eluates were also synthesized and re-tested.

[2] = system: SNF1 mice; assay: Acceleration of SLE-associated nephritis by immunization with eluted peptides in adjuvant; format: in vivo, mouse; settings: for onset/rate of disease relative to control group (CFA alone or OVA peptide in CFA): immunization from 12 weeks
Excerpt: The animals received three more injections at two weeks interval with 50 micrograms of either an eluted peptide or the control peptide absorbed on alum (Pierce Chemical Co., Rockford, Ill.).

[3] = system: SNF1 mice; assay: Brief therapy with nucleosomal histone peptides (long-term experiments): incidence of severe nephritis; format: in vivo, mouse
Experimental: (§1) Long-term experiments used 12 week-old, autoimmune, but pre-nephritic SNF1 female mice. Nine mice per peptide test group were injected intravenously with either a saline (solution) or a peptide solution comprising saline and 300 micrograms of one of H2B10-33, H416-39, and H471-94. Each mouse received three subsequent injections of either the saline solution or one of the peptide solutions at two-week intervals. The mice were monitored weekly for proteinuria using an Albustix kit (VWR Scientific, Chicago, Ill.), and sacrificed upon the development of persistent proteinuria. Persistent protenuria was identified as an amount of protein in urine that is equivalent to or greater than 300 milligrams per deciliter, and is a primary indication of severe kidney disease and damage associated with nephritis. Sera were collected from each mouse and the IgG anti-nuclear autoantibodies determined. Blood urea nitrogen (BUN) was measured by Azostix (Miles, Ekhart, Ind.). Immune complex deposition and glomerulonephritis in the kidney were detected by staining with Hematoxylin and Eosin and anti-mouse Ig. These procedures were carried out as previously described (Mohan et al., 1993, J. Exp. Med. 177:1367; Mohan et al., 1995, J. Immunol. 154:1470; Eastcott et al., 1983, J. Immunol. 131:2232; Adams et al., 1991, Proc. Natl. Acad. Sci. USA 88:11271; Kalled et al., 1998, J. Immunol. 160:2158; Gaynor et al., 1997, Proc. Natl. Acad. Sci. USA 94:1955).

[4] = system: SNF1 mice; assay: Short-term tolerance experiments: grading of lupus nephritis at sacrifice; format: in vivo, mouse; settings: short-term batch, at sacrifice two weeks after last injection
Experimental: Short-term experiments were conducted to test the early immunological consequences of tolerance therapy. Twelve week old SNF1 mice were injected once a week for four weeks with either a saline solution or a peptide solution comprising saline and 300 micrograms of one of the above described peptides. Mice were sacrificed at two weeks after the last injection. Presence of autoimmune T and B cells was analyzed and renal lesions were graded.

[5] = system: CD4+ T cells; assay: Helper assay: CD4+ T cells from peptide-injected mice co-cultured with B cells from unmanipulated SNF1 mice; format: cell-based, mouse
Excerpt: (§2) Levels of IgG class autoantibodies specific for single-stranded DNA (ssDNA), double-stranded DNA (dsDNA), histones, and nucleosomes (i.e. histone-DNA complexes), in culture supernatants or serum, were estimated using an enzyme-linked immunosorbent assay (ELISA). Anti-DNA mAbs 564 and 205 were used to generate standard curves as previously described (Mohan et al., 1993, J. Exp. Med. 177:1367; Kaliyaperumal et al., 1996, J. Exp. Med. 183:2459; Mohan et al., 1995, J. Immunol. 154:1470; Adams et al., 1991, Proc. Natl. Acad. Sci. USA 88:11271). Sera were diluted 1:400 and heat-inactivated before use according to standard procedures. Sera from normal SWR mice were used as the negative control. Total polyclonal IgG levels were also measured by ELISA as previously described (Mohan et al., 1993, J. Exp. Med. 177:1367; Mohan et al., 1995, J. Immunol. 154:1470; Adams et al., 1991, Proc. Natl. Acad. Sci. USA 88:11271).
T-cells from peptide-treated mice used in the short-term experiments were co-cultured with splenic B cells from unmanipulated mice. Conversely, T cells from unmanipulated SNF1 mice (i.e. control mice) were co-cultured with splenic B cells from tolerized (i.e. peptide-injected) mice. Each of the cell types was seeded in 24-well plates at an initial concentration of 2.5×10^6 cells per well. Cultures were maintained for 7 days, as previously described (Datta et al., 1987, J. Exp. Med. 165:1252; Sainis and Datta, 1988, J. Immunol. 140:2215). B cells from unmanipulated or tolerized animals were cultured alone to measure baseline autoantibody production. Culture supernatants were collected, freeze-thawed, and assayed by ELISA for antibodies against ssDNA, dsDNA, histones and nucleosomes. For studies involving stimulation of B cells by soluble CD40 ligand, CD40L-CD8 fusion protein (Wortis et al., 1995, Proc. Natl. Acad. Sci. USA 92:3348) was added to either the co-culture wells or the wells with B cells alone and maintained in the medium for the entire 7-day culture period.

[6] = system: SNF1 mice; assay: IgG anti-nuclear autoantibody and total IgG levels in sera of peptide-injected mice (ELISA); format: in vivo, mouse; settings: sera 1:400
Experimental: as §1, §2

[7] = system: SNF1 mice; assay: Chronic therapy of established glomerulonephritis with nucleosomal peptides; format: in vivo, mouse
Experimental: Six mice per group were injected intraperitoneally once each month with either a saline solution or a peptide solution comprising saline and 300 micrograms of one of the identified peptides. The endpoint of these experiments was the development of moribund state due to renal failure.

[8] = system: CD4+ T cell clone DD2; assay: IL-2 production by lupus Th cell clone DD2 in response to histone peptides; format: cell-based, human; settings: for stimulation of DD2: autologous EBV-B cells pulsed with peptide as APC
Experimental: Short-term T cell lines were rapidly thawed from liquid nitrogen and expanded in the presence of plate-bound anti-CD3 mAb, anti-CD28 mAb, and rIL-2 (20 units per milliliter). The expanded cells were transferred to fresh culture wells and rested by incubating in fresh medium for 10 to 14 days. For stimulation assays, 96 well plates were coated with 2 micrograms per milliliter of goat anti-mouse IgG antibodies overnight at 37° C. After washing the plates twice with Dulbecco's phosphate-buffered saline (dPBS), autologous and previously irradiated (3,000 rad) EBV-B cells (APC) were first added to each well at a concentration of 1×10^5 cells per well. The cells (APC) were cultured together with either a core histone peptide or a control peptide for 6 hours in HL-1 serum free medium (Bio Whittaker, Maryland). This procedure was followed by the addition to each well of CD4^+ T cells from the short-term lines at a concentration of 1×10^5 cells per well, and the addition of 0.5 micrograms per milliliter of a mouse monoclonal antibody (mAb) to human CD28. The final volume of the cultures was 200 microliters per well. Cells were co-cultured for 24 hours at 37° C. One-half the volume of supernatant was collected from each well for ELISA analysis of interleukin levels. Fresh medium (100 microliters) was added to cells, and the cells were incubated an additional 48 hours. [^3H] thymidine was added, and the cultures were incubated an additional 18 hours. Incorporated radioactivity was measured to quantitate T cell proliferation as described previously (Desai-Mehta et al., 1995, J. Clin. Invest. 95:53 1-541). HLA class II dependence of antigen-specific responses by the CD4^+ T cells was determined by adding to the co-cultures a blocking antibody from a panel of mAb to HLA class II molecules, as described previously (Desai-Mehta et al., 1995, J. Clin. Invest. 95:53 1-541). […]
IL-2 secreted by CD4^+ T cells in short term experiments was measured using an ELISA. […]

[9] = system: short-term CD4+ T cell lines; assay: IL-2 production by short-term CD4+ T cell lines in response to histone peptides (pepscan); format: cell-based, human
Experimental: Short-term T cell lines were rapidly thawed from liquid nitrogen and expanded in the presence of plate-bound anti-CD3 mAb, anti-CD28 mAb, and rIL-2 (20 units per milliliter). The expanded cells were transferred to fresh culture wells and rested by incubating in fresh medium for 10 to 14 days. For stimulation assays, 96 well plates were coated with 2 micrograms per milliliter of goat anti-mouse IgG antibodies overnight at 37° C. After washing the plates twice with Dulbecco's phosphate-buffered saline (dPBS), autologous and previously irradiated (3,000 rad) EBV-B cells (APC) were first added to each well at a concentration of 1×10^5 cells per well. The cells (APC) were cultured together with either a core histone peptide or a control peptide for 6 hours in HL-1 serum free medium (Bio Whittaker, Maryland). This procedure was followed by the addition to each well of CD4^+ T cells from the short-term lines at a concentration of 1×10^5 cells per well, and the addition of 0.5 micrograms per milliliter of a mouse monoclonal antibody (mAb) to human CD28. The final volume of the cultures was 200 microliters per well. Cells were co-cultured for 24 hours at 37° C. One-half the volume of supernatant was collected from each well for ELISA analysis of interleukin levels. Fresh medium (100 microliters) was added to cells, and the cells were incubated an additional 48 hours. [^3H] thymidine was added, and the cultures were incubated an additional 18 hours. Incorporated radioactivity was measured to quantitate T cell proliferation as described previously (Desai-Mehta et al., 1995, J. Clin. Invest. 95:53 1-541). HLA class II dependence of antigen-specific responses by the CD4^+ T cells was determined by adding to the co-cultures a blocking antibody from a panel of mAb to HLA class II molecules, as described previously (Desai-Mehta et al., 1995, J. Clin. Invest. 95:53 1-541).
IL-2 secreted by CD4^+ T cells in short term experiments was measured using an ELISA. Capture and biotinylated antibody pairs directed at human IL-2 and standards for use therein were purchased from PharMingen. […]

DWMEEEHGAQREKE (DWMEEEEGAQREKE; Histone fragment) [EP-2]
stimulation of pathogenic Th clones [1]: stimulatory | mice developed disease ([2]; by 20 weeks of age): 60% | onset/rate of disease relative to control group (CFA alone or OVA peptide in CFA) [2]: developed severe nephritis earlier

H2B10-33: histone 2B protein (H2B) amino acids 10-33
incidence of severe nephritis ([3]; at 28 weeks of age, 300 micrograms i.v., four injections at two-week intervals from 12 weeks): did not develop disease | incidence of severe nephritis ([3]; at 36-38 weeks of age, control 88.8%): 33.3% | Percent Incidence, Grading of Lupus Nephritis 1+ [4]: 66.6 | Percent Incidence, Grading of Lupus Nephritis 2+ [4]: 33.3 | reduction of anti-ssDNA antibody production relative to control group ([5]; T cells from treated mice + B cells from unmanipulated mice): approximately 55% | decrease in anti-dsDNA antibody production relative to control group ([5]; T cells from treated mice + B cells from unmanipulated mice, 7 days): five fold decrease | increase in help for anti-dsDNA antibody production following addition of rIL-2 ([5]; rIL-2 added at beginning of 7-day culture): did not exhibit any increase | serum anti-dsDNA antibody level ([6]; at 36 weeks of age, control 26±3.2): 14.0±3.2 units | serum anti-dsDNA antibody level ([6]; at the start of treatment (12 weeks), control 5.5±0.3): 7.7±0.9 units | survival ([7]; by 26 months age): only one mouse in the H2B10-33 group survived | mice alive ([7]; two months after start of treatment (all controls dead), 300 micrograms i.p. monthly, 18-month old mice): 66.6%

H355-69: 15-mer nucleosomal histone H3 peptide, positions 55-69 (QKSTELLIRKLPFQR; UniProt P68431 56-70, looked up, fragment)
stimulation of DD2 [8]: stimulated DD2 very weakly

H383-97: H3 peptide used as additional background control, partly within a stimulatory region in H3 (RFQSSAVMALQEACE; UniProt P68431 84-98, looked up, fragment)
stimulation of DD2 [8]: not recognized by any of the T-cell lines or clone DD2 | recognition by / response of lupus T cell lines ([9]; short-term lines from 10 lupus patients): not recognized by any of the T-cell lines or clone DD2

H416-30: 15-mer histone H4 peptide, positions 16-30
IL-2 production response, percentage of maximal response stimulated by anti-CD3 mAb ([9]; average of 10 lupus T cell lines, baseline 22%): 23±2.6%

H449-63: histone peptide of H4, positions 49-63 (LIYEETRGVLKVFLE)
HLA class II dependence of peptide presentation ([9]; short-term T cell line L-EB, autologous EBV-B cells, blocking mAb): inhibited mainly by anti-DR mAb

SQKEEEEGAQREKE (Histone fragment) [EP-1]
stimulation of pathogenic Th clones [1]: stimulatory | onset/rate of disease relative to control group (CFA alone or OVA peptide in CFA) [2]: did not result in any increase in the rate of disease

anti-CD3: Anti-CD3 antibody (mAb) produced by hybridoma OKT3, positive control stimulus [reference compound]
IL-2 production by T cell clone DD2 ([8]; background with APC without peptide 132): 554 picograms per milliliter
